According to US20070003987A1, “Screening method for substance binding to merozoite surface protein-1/42” (priority 2003, published 2007):

Tests used:
P. falciparum MSP142 = target: T1, P. falciparum MSP142 (Plasmodium falciparum, UniProt Q8I0U8); test: binding of suramin to MSP1 by fluorimetry
T1 construct: was used to express a His6-tagged MSP142 protein; His6; made in house; host or cells: E. coli BL21 (DE3)
Description: The pETATPf MSP142 plasmid (described by Angov et al, 2003 Mol. Biochem. Parasitol. 128, 195-204) was used to express a His6-tagged MSP142 protein (P. falciparum 3D7 clone, Accession Number Z35327). The DNA was used to transform E. coli BL21 (DE3) cells and then clones were selected on plates of agar containing ampicillin. Cells expressing the modified MSP142 were grown to mid log phase (OD6000.5-0.8) at 37° C., then after the incubation temperature had been reduced to 25° C., the protein expression was induced by addition of 0.1 mM IPTG. After 2 h of further growth the bacterial cells were harvested by centrifugation. The resulting cell paste was resuspended in lysis buffer (10 mM sodium phosphate, 50 mM NaCl, 10 mM imidazole, pH 6.2) and lysed by microfluidization. […]
The intrinsic fluorescence of suramin was used to determine its capacity to bind to the various MSP1-derived proteins. The fluorescence was measured using a Perkin Elmer LS-3B or a Spex Fluoro Max 2 fluorimeter. Suramin was excited at a wavelength of 315 or 330 nm with 2.5 nm resolution, the emission spectra were measured at wavelengths ranging from 350-450 nm. Suramin and the MSP1 proteins were diluted in 20 mM NaH2PO4, 150 mM NaCl at pH 7.2 and analysed at 10 or 20° C. […] The Kd for the suramin-MSP1 binding was determined from three independent experiments. […]

MSP142 = MSP142 (Plasmodium falciparum, UniProt Q8I0U8); test: inhibition of suramin binding (fluorescence, 384-well plate); conditions: λex 320 nm/λem 405 nm
Description: MSP142 (0.1 mg/ml), 10 μM suramin analogue and 2 μM suramin were combined in a 384-well black polypropylene low binding plate (total reaction volume 100 μL). Fluorescence was read at λex 320 nm/λem 405 nm on a BMG Polarstar fluorimeter. Readings were taken before, and 1 hour after, addition of suramin.

P. vivax MSP142 = target: T2, P. vivax MSP142 (Plasmodium vivax, UniProt Q02569, A1444G/T1362K/T1451N); test: isothermal titration calorimetry; type: binding
T2 sequence (Q02569 1325-1704 T1362K/A1444G/T1451N): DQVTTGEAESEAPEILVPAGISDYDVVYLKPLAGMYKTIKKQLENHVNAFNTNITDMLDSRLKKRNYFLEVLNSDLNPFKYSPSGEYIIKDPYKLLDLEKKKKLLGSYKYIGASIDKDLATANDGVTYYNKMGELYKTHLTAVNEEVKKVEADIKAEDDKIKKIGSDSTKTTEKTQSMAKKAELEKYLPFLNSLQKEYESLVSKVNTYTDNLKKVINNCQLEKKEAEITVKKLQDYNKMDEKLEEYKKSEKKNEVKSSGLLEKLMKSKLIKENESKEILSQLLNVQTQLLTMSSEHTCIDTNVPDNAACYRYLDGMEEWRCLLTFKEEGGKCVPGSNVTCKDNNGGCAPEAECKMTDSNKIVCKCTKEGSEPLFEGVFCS
Description: The MSP142 protein from P. vivax was cloned into plasmid jmp28, a modified pET-28 vector that encodes an N-terminal peptide MHHHHHHIEGRWIL immediately upstream of the inserted sequence. P. vivax (Belem strain) DNA was used as a template for PCR based cloning. The sequence of the expressed protein (following the vector encoded N-terminal peptide) corresponded to residues Asp 1325 to Ser 1704, Accession number A39401.
The protein was expressed in BL21(DE3)pLysS cells by induction of a culture at an OD600 of 0.6-0.8 with IPTG at a final concentration of 1 mM. The cells were induced for 3 h at 37° C. and then harvested by centrifugation. The cells were lysed using the Bugbuster protein extraction reagent (Novagen), after centrifugation of the cell lysate, the pellet containing the MSP142 was dissolved in 6M Guanidine-HCl, 100 mM Na2HPO4, 10 mM Tris-HCl, pH 8.0. This was applied to a Ni-NTA column, washed with 10 column volumes of the loading buffer, followed by 6 column volumes of 8 M Urea, 100 mM Na2HPO4, 10 mM Tris-HCl, at pH 7.0, and 6 column volumes at pH 6.1. The protein was eluted in 3 column volumes 8 M Urea, 100 mM Na2HPO4, 10 mM Tris-HCl, pH 4.3. […]
In addition to the fluorimetry, isothermal titration calorimetry (ITC) was performed using a Microcal omega VP-ITC (MicroCal Inc., Northampton, Mass.). […] The heat of dilution of suramin into buffer was determined in control experiments. […]

Cc1ccc(C(=O)Nc2ccc(S(=O)(=O)O)c3cc(S(=O)(=O)O)cc(S(=O)(=O)O)c23)cc1NC(=O)c1cccc(NC(=O)Nc2cccc(C(=O)Nc3cc(C(=O)Nc4ccc(S(=O)(=O)O)c5cc(S(=O)(=O)O)cc(S(=O)(=O)O)c45)ccc3C)c2)c1 [suramin] was tested, and the Kd (P. falciparum MSP142) was 220 nM, the “change of suramin emission intensity on binding to MSP142” value (P. falciparum MSP142; excited at 315 nm) was “pronounced increase in emission intensity” and the “signal to noise ratio of fluorescence signal” value (MSP142) was 1.8. For the same compound, the Kd (P. vivax MSP142) was 300 ± 100 nM and the AH value (P. vivax MSP142; ITC, 25° C.) was 11 ± 1 kcal/mol.
